Reference: patent publication US4309428A, “Maytansinoids” (Takeda Chemical Industries, Ltd., priority 1979, dated 1982)
Values after ≈ are worked out from the molar mass of the structure shown. Like-named read-outs stand apart in the source and are kept apart here.

Experiments:
Tetrahymena pyriformis W = assay: Antiprotozoal activity, serial dilution method; type: cell-based
Procedure: Antiprotozoal activity of compound (I) was assayed with Tetrahymena pyriformis W as the test organism and a medium composed of 20 g tryptose-peptone (Difco Co.), 1 g yeast extract, 2 g glucose, 1000 ml distilled water, 10 ml 1 M phosphate buffer (pH 7.0) as the assay medium. The microorganism was incubated at 28° C. for 44 to 48 hours and the growth inhibitory activity of compound (I) was assayed by the serial dilution method.

[1] = system: melanoma B-16 tumor cells; assay: Antitumor activity: life span prolongation in mice with intraperitoneally transplanted melanoma B-16 (NCI protocol); type: in vivo; conditions: intraperitoneally once daily for 9 days
Procedure: Therapeutic tests were carried out in mice according to NCI-protocol 1,300, Cancer Chemother, Reports, Part 3, 1972, Vol. 3, No. 2, in which melanoma B-16 tumor cells had been intraperitoneally transplanted, compound (I) being administered intraperitoneally once daily for 9 consecutive days.

[2] = 28° C., 44 to 48 hours, pH 7.0, read-out: Antiprotozoal activity MIC

Compound | MIC (Tetrahymena pyriformis W; [2]) | Antitumor activities B-16 (T/C %) ([1]; 50 μg/kg) | Antitumor activities B-16 (T/C %) ([1]; 100 μg/kg) | also measured
COC1C=CC=C(C)Cc2cc(OCc3ccccc3)c(Cl)c(c2)N(C)C(=O)CC(OC(=O)C(C)C)C2(C)OC2C(C)C2CC1(O)NC(=O)O2 (centres unmarked) [PDM-3-C20-benzylether, PDM-3-C20-benzyl ether] | ≤ 1 µg/mL | 220% | 234% | Antitumor activities B-16 (T/C %) ([1]; 25 μg/kg): 182%
CCOC(=O)COc1cc2cc(c1Cl)N(C)C(=O)CC(OC(=O)C(C)C)C1(C)OC1C(C)C1CC(O)(NC(=O)O1)C(OC)C=CC=C(C)C2 (centres unmarked) [C20 -ethoxycarbonylmethyl ether, PDM-3-C20-ethoxycarbonylmethyl ether] | 1 to 2 µg/mL (≈ 1.41 to 2.83 µM) | – | – | –
CCOC(COc1cc2cc(c1Cl)N(C)C(=O)CC(OC(=O)C(C)C)C1(C)OC1C(C)C1CC(O)(NC(=O)O1)C(OC)C=CC=C(C)C2)OCC (stereo not drawn) [PDM-3-C20-(β,β-diethoxy)ethyl ether, PDM-3-C20 -β,β-diethoxyethyl ether] | – | 211% | 240% | Antitumor activities B-16 (T/C %) ([1]; 25 μg/kg): 194%
COC1C=CC=C(C)Cc2cc(OCC(=NNC(=O)c3ccncc3)c3ccccc3)c(Cl)c(c2)N(C)C(=O)CC(OC(=O)C(C)C)C2(C)OC2C(C)C2CC1(O)NC(=O)O2 (centres unmarked) [PDM-3-C20-(2-isonicotinoylhydrazono-2-phenyl)ethyl ether] | 2 to 4 µg/mL (≈ 2.33 to 4.66 µM) | – | – | –
CCOC(=O)CC(=O)COc1cc2cc(c1Cl)N(C)C(=O)CC(OC(=O)C(C)C)C1(C)OC1C(C)C1CC(O)(NC(=O)O1)C(OC)C=CC=C(C)C2 (centres unmarked) [C20 -γ-ethoxycarbonylacetonyl ether, PDM-3-C20 -γ-ethoxycarbonylacetonyl ether] | 4 µg/mL (≈ 5.34 µM) | – | – | –
COC1C=CC=C(C)Cc2cc(OCC(=O)c3ccccc3)c(Cl)c(c2)N(C)C(=O)CC(OC(=O)C(C)C)C2(C)OC2C(C)C2CC1(O)NC(=O)O2 (centres unmarked) [PDM-3-C20-phenacylether, PDM-3-C20-phenacyl ether] | – | 188% | 176% | Antitumor activities B-16 (T/C %) ([1]; 200 μg/kg): 211%; Antitumor activities B-16 (T/C %) ([1]; 400 μg/kg): 203%
C=CCOc1cc2cc(c1Cl)N(C)C(=O)CC(OC(=O)C(C)C)C1(C)OC1C(C)C1CC(O)(NC(=O)O1)C(OC)C=CC=C(C)C2 (centres unmarked) [C20 -allyl ether, PDM-3-C20-allyl ether] | ≤ 1 µg/mL | – | – | –
CCOc1cc2cc(c1Cl)N(C)C(=O)CC(OC(=O)C(C)C)C1(C)OC1C(C)C1CC(O)(NC(=O)O1)C(OC)C=CC=C(C)C2 (centres unmarked) [C20 -ethoxy ether, PDM-3-C20-ethyl ether] | – | – | – | MIC (Tetrahymena pyriformis W; pH 7, read-out: Antiprotozoal activity MIC): ≤ 1 µg/mL
CCOCCOCCOc1cc2cc(c1Cl)N(C)C(=O)CC(OC(=O)C(C)C)C1(C)OC1C(C)C1CC(O)(NC(=O)O1)C(OC)C=CC=C(C)C2 (centres unmarked) [C20-2-(2-ethoxyethoxy)ethyl ether, PDM-3-C20-2-(2-ethoxyethoxy)ethyl ether] | 2 µg/mL (≈ 2.71 µM) | – | – | –
